Test: Safety: adverse events (NCI-CTCAE v4.0), DLT, MTD, RP2D
Format: in vivo
Procedure: AEs were assessed using the National Cancer Institute-Common Terminology Criteria for Adverse Events (NCI-CTCAE v4.0). […] The protocol-defined GDC-0810-specific AEs of special interest (AESI) which were non-serious adverse events that required expedited reporting to the sponsor, included DLTs occurring during the DLT assessment window, grade ≥ 2 vomiting/diarrhea, grade ≥ 3 nausea, grade ≥ 2 thromboembolic events, grade ≥ 2 vaginal or uterine hemorrhage, and grade ≥ 3 elevation of ALT or AST.
Analyses of safety, pharmacokinetics, anti-tumor activity, and data from the FES-PET imaging correlative studies were planned. Confirmatory inferential analyses and imputation for missing data were not planned due to the exploratory nature of this study. Descriptive statistics were used to summarize patient data. The number of patients to be enrolled was dependent upon the observed safety and pharmacokinetic profile during dose escalations. The safety- and efficacy-evaluable population included patients who received at least one dose of the study drug. Safety was assessed through summaries of DLTs, AEs, changes in select laboratory test results, vital signs, ECGs, and changes in endometrial thickness. Objective response (with confirmation) and clinical benefit rates (CBR) were derived per RECIST v1.1 and summarized by dose level and cohort. […]
polyps, endometrial cancer, endometrial hyperplasia, and other significant disorders); any […]
disease or chronic diarrhea, short bowel syndrome, or upper gastrointestinal surgery; known human immunodeficiency virus (HIV) infection; known clinically significant history of liver disease; major surgery within 4 weeks prior to enrollment; or radiation therapy within 2 weeks […]
There were phase-specific exclusion criteria as well. In phase Ib, cohort C1 excluded patients with a history of venous thromboembolic event requiring therapeutic anticoagulation or vaginal bleeding within 2 months prior to enrollment. In phase IIa, cohorts A1 and A2 excluded patients with >1 chemotherapy in the advanced/metastatic disease setting. In phase IIa, cohort B1 excluded patients with >1 prior AI in the advanced/metastatic disease setting or prior […]
In phase IIa, cohort B2 excluded patients with >1 prior AI or >1 prior chemotherapy in the advanced/metastatic disease setting.
Patients in phase Ia in dose escalation received oral doses of GDC-0810 during 28-day cycles given once daily (QD) or twice-daily (BID), with fasting and without fasting, and with a single dose given on day −7 leading into cycle 1. The starting dose in the first cohort was 100 mg per day based on preclinical studies. Dose escalation to 200 mg and by 200 mg increments in successive cohorts occurred in the absence of dose-limiting toxicities (DLTs), or conditionally in the presence of DLTs. A DLT was defined as any adverse event (AE) occurring during the DLT window deemed by the investigator or sponsor to be related to the study drug unless they were clearly related to disease progression or other cause; DLT incidences were evaluated from day […]
patients in a dose cohort experienced a DLT, 3 additional patients were assigned to that dose; dose escalation to the next level proceeded if DLTs were experienced by ≤1 patient out of 6. If ≥2 patients experienced DLTs at a given dose, a lower dose was to be declared the maximum […]
Phase Ib was a dose-escalation study of GDC-0810 starting at 400 mg QD, as […]
Phase IIa explored the recommended phase 2 dose (RP2D) from phase Ia. All patients received GDC-0810 600 mg under non-fasting conditions. Cohorts A1 and A2 enrolled patients with tumors harboring ESR1 mutations with no prior fulvestrant use in cohort A1 while prior fulvestrant use was allowed in cohort A2. Cohorts B1 and B2 enrolled patients whose disease had progressed and who may have had one or no AI therapy; there was no prior fulvestrant use in cohort B1 while prior fulvestrant use was allowed in cohort B2.
Patients in all three study phases continued treatment until unacceptable toxicity, disease

[1] = phase IIa B2, 600 mg QD, n = 19
[2] = phase Ia cohorts 1–9, 100–800-mg BID, 300–400-mg QD, n = 41
[3] = phase Ib C1, 400 mg QD + palbociclib, n = 4
[4] = phase Ib D1, ≤ 600 mg QD + LHRH agonist, n = 6
[5] = phase Ib and IIa (n=111), grade 2, cohort B1
[6] = phase Ib and IIa (n=111), grade 2, cohort D1
[7] = phase Ib and IIa (n=111), grade 3, cohort A1
[8] = phase Ib and IIa (n=111), grade 3, cohort B1
[9] = phase Ib and IIa (n=111), grade 5, cohort B1
[10] = phase Ib combination treatments

For `CC/C(=C(/c1ccc(/C=C/C(=O)O)cc1)c1ccc2[nH]ncc2c1)c1ccc(F)cc1Cl` [GDC-0810], the “Constipation, Grades 3–5” value [1] was 0 n (%), the “Constipation, all grades” value [1] was 4 (21) n (%) and the “Cough, Grades 3–5” value [1] was 0 n (%). The “Cough, all grades” value [1] was 4 (21) n (%), the “Decreased appetite, Grades 3–5” value [1] was 0 n (%) and the “Decreased appetite, all grades” value [1] was 2 (11) n (%). The “Diarrhea, Grades 3–5” value [1] was 0 n (%), the “Diarrhea, all grades” value [1] was 11 (58) n (%) and the “Dyspepsia, Grades 3–5” value [1] was 0 n (%). For the same molecule, the “Dyspepsia, all grades” value [1] was 2 (11) n (%), the “Fatigue, Grades 3–5” value [1] was 0 n (%) and the “Fatigue, all grades” value [1] was 7 (37) n (%). For the same molecule, the “Flatulence, Grades 3–5” value [1] was 0 n (%), the “Flatulence, all grades” value [1] was 0 n (%) and the “Nausea, Grades 3–5” value [1] was 0 n (%). For the same molecule, the “Nausea, all grades” value [1] was 9 (47) n (%), the “Vomiting, Grades 3–5” value [1] was 0 n (%) and the “Vomiting, all grades” value [1] was 2 (11) n (%). The “AEs leading to dose interruption” value (phase IIa expansion cohorts) was 32 (32%) n (%), the “AEs leading to dose reduction” value (phase IIa expansion cohorts) was 4 (4%) n (%) and the “AEs leading to study drug withdrawal” value (phase IIa expansion cohorts) was 3 (3%) n (%). For the same molecule, the “MTD (maximum tolerated dose)” value (phase Ia) was “not reached”, the “time to onset for any grade diarrhea, range” value (phase Ia) was 1 to 176 days and the “AST increased, Grades 3–5” value [2] was 2 (5) n (%). The “AST increased, all grades” value [2] was 17 (42) n (%), the “Abdominal pain, Grades 3–5” value [2] was 1 (2) n (%) and the “Abdominal pain, all grades” value [2] was 12 (29) n (%). The “Anemia, Grades 3–5” value [2] was 1 (2) n (%), the “Anemia, all grades” value [2] was 18 (44) n (%) and the “Arthralgia, Grades 3–5” value [2] was 0 n (%). The “Arthralgia, all grades” value [2] was 12 (29) n (%), the “Constipation, Grades 3–5” value [2] was 0 n (%) and the “Constipation, all grades” value [2] was 17 (42) n (%). For the same molecule, the “Cough, Grades 3–5” value [2] was 0 n (%), the “Cough, all grades” value [2] was 13 (32) n (%) and the “Decreased appetite, Grades 3–5” value [2] was 0 n (%). For the same molecule, the “Decreased appetite, all grades” value [2] was 13 (32) n (%), the “Diarrhea, Grades 3–5” value [2] was 0 n (%) and the “Diarrhea, all grades” value [2] was 32 (78) n (%). The “Dyspepsia, Grades 3–5” value [2] was 0 n (%), the “Dyspepsia, all grades” value [2] was 11 (27) n (%) and the “Fatigue, Grades 3–5” value [2] was 3 (7) n (%). The “Fatigue, all grades” value [2] was 28 (68) n (%), the “Flatulence, Grades 3–5” value [2] was 0 n (%) and the “Flatulence, all grades” value [2] was 11 (27) n (%). For the same molecule, the “Nausea, Grades 3–5” value [2] was 1 (2) n (%), the “Nausea, all grades” value [2] was 28 (68) n (%) and the “Vomiting, Grades 3–5” value [2] was 1 (2) n (%). For the same molecule, the “Vomiting, all grades” value [2] was 16 (39) n (%), the “AEs leading to dose interruption” value (phase Ia dose escalation) was 18 (44%) n (%) and the “AEs leading to dose reduction” value (phase Ia dose escalation) was 5 (12%) n (%). For the same molecule, the “patients with ≥ 1 AE considered related to GDC-0810” value (phase Ia dose escalation) was 40 (98%) n (%), the “mean time to onset for any grade diarrhea” value (phase Ia dose-escalation cohorts) was 29 days and the “SAEs considered related to the study drug” value (phase Ia, grade 4 pulmonary embolism) was “one of the 20”. The “patients with grade ≥3 AEs related to GDC-0810” value (phase Ia, grade 4 pulmonary embolism and two grade 3 diarrhea) was 3 (7%) n (%), the deaths (phase Ib) was “no deaths” and the “AST increased, Grades 3–5” value [3] was 0 n (%). The “AST increased, all grades” value [3] was 1 (25) n (%), the “Abdominal pain, Grades 3–5” value [3] was 0 n (%) and the “Abdominal pain, all grades” value [3] was 0 n (%). The “Anemia, Grades 3–5” value [3] was 0 n (%), the “Anemia, all grades” value [3] was 2 (50) n (%) and the “Arthralgia, Grades 3–5” value [3] was 0 n (%). The “Arthralgia, all grades” value [3] was 1 (25) n (%), the “Constipation, Grades 3–5” value [3] was 0 n (%) and the “Constipation, all grades” value [3] was 0 n (%). For the same molecule, the “Cough, Grades 3–5” value [3] was 0 n (%), the “Cough, all grades” value [3] was 1 (25) n (%) and the “Decreased appetite, Grades 3–5” value [3] was 0 n (%). For the same molecule, the “Decreased appetite, all grades” value [3] was 1 (25) n (%), the “Diarrhea, Grades 3–5” value [3] was 0 n (%) and the “Diarrhea, all grades” value [3] was 2 (50) n (%). For the same molecule, the “Dyspepsia, Grades 3–5” value [3] was 0 n (%), the “Dyspepsia, all grades” value [3] was 0 n (%) and the “Fatigue, Grades 3–5” value [3] was 1 (25) n (%). For the same molecule, the “Fatigue, all grades” value [3] was 2 (50) n (%), the “Flatulence, Grades 3–5” value [3] was 0 n (%) and the “Flatulence, all grades” value [3] was 0 n (%). The “Nausea, Grades 3–5” value [3] was 0 n (%), the “Nausea, all grades” value [3] was 3 (75) n (%) and the “Vomiting, Grades 3–5” value [3] was 0 n (%). For the same molecule, the “Vomiting, all grades” value [3] was 0 n (%), the “AST increased, Grades 3–5” value [4] was 0 n (%) and the “AST increased, all grades” value [4] was 0 n (%). The “Abdominal pain, Grades 3–5” value [4] was 0 n (%), the “Abdominal pain, all grades” value [4] was 2 (33) n (%) and the “Anemia, Grades 3–5” value [4] was 0 n (%). The “Anemia, all grades” value [4] was 0 n (%), the “Arthralgia, Grades 3–5” value [4] was 0 n (%) and the “Arthralgia, all grades” value [4] was 1 (17) n (%). For the same molecule, the “Constipation, Grades 3–5” value [4] was 0 n (%), the “Constipation, all grades” value [4] was 3 (50) n (%) and the “Cough, Grades 3–5” value [4] was 0 n (%). The “Cough, all grades” value [4] was 1 (17) n (%), the “Decreased appetite, Grades 3–5” value [4] was 0 n (%) and the “Decreased appetite, all grades” value [4] was 4 (67) n (%). For the same molecule, the “Diarrhea, Grades 3–5” value [4] was 1 (17) n (%), the “Diarrhea, all grades” value [4] was 6 (100) n (%) and the “Dyspepsia, Grades 3–5” value [4] was 0 n (%). For the same molecule, the “Dyspepsia, all grades” value [4] was 3 (50) n (%), the “Fatigue, Grades 3–5” value [4] was 0 n (%) and the “Fatigue, all grades” value [4] was 3 (50) n (%). For the same molecule, the “Flatulence, Grades 3–5” value [4] was 0 n (%), the “Flatulence, all grades” value [4] was 1 (17) n (%) and the “Nausea, Grades 3–5” value [4] was 0 n (%). For the same molecule, the “Nausea, all grades” value [4] was 4 (67) n (%), the “Vomiting, Grades 3–5” value [4] was 0 n (%) and the “Vomiting, all grades” value [4] was 3 (50) n (%). The “SAE Urinary tract infection” value (phase Ib and IIa (n=111), grade 1, cohort A1) was 1 n, the “SAE Hepatic hemorrhage” value (phase Ib and IIa (n=111), grade 2, cohort A1) was 1 n and the “SAE Deep vein thrombosis” value [5] was 1 n. For the same molecule, the “SAE Pneumonia” value [5] was 1 n, the “SAE Pleural effusion” value (phase Ib and IIa (n=111), grade 2, cohort C1) was 1 n and the “SAE Abdominal pain” value [6] was 1 n. For the same molecule, the “SAE Appendicitis perforated” value [6] was 1 n, the “SAE Pain in extremity” value [6] was 1 n and the “SAE Ascites” value [7] was 1 n. The “SAE Hypertension” value [7] was 1 n, the “SAE Vomiting” value (phase Ib and IIa (n=111), grade 3, cohort A1 (both)) was 2 n and the “SAE Cardiac failure” value [8] was 1 n. For the same molecule, the “SAE Diarrhea” value [8] was 1 n, the “SAE Dyspnea” value [8] was 1 n and the “SAE Endometrial hyperplasia” value [8] was 1 n. For the same molecule, the “SAE Headache” value [8] was 1 n, the “SAE Hip fracture” value [8] was 1 n and the “SAE Hydronephrosis” value [8] was 1 n. The “SAE Seizure” value [8] was 1 n, the “SAE Syncope” value [8] was 1 n and the “SAE Tumor pain” value [8] was 1 n. The “SAE Atrial fibrillation” value (phase Ib and IIa (n=111), grade 3, cohort C1) was 1 n, the “SAE Pneumonia” value (phase Ib and IIa (n=111), grade 3, cohorts A2, B1) was 2 n and the “SAE Pulmonary embolism” value (phase Ib and IIa (n=111), grade 3, cohorts B1, D1) was 2 n. For the same molecule, the “SAE Hyponatremia” value (phase Ib and IIa (n=111), grade 4, cohort B1) was 1 n, the “SAE Sepsis” value (phase Ib and IIa (n=111), grade 4, cohorts B1, B2) was 2 n and the “SAE Acute kidney injury” value [9] was 1 n. The “SAE Breast cancer” value [9] was 2 n, the “AEs leading to dose interruption” value [10] was 5 (50%) n (%) and the “AEs leading to dose reduction” value [10] was “none”. For the same molecule, the “AEs leading to study drug withdrawal” value [10] was “none”, the “vomiting, most common AEs” value (phases Ib/IIa) was 31,28% and the “RP2D (recommended phase 2 dose)” value (taken with food / non-fasted) was 600 mg QD.

From PMC9823088, “The oral selective estrogen receptor degrader GDC-0810 (ARN-810) in postmenopausal women with hormone receptor-positive HER2-negative (HR + /HER2 −) advanced/metastatic breast cancer” (Breast Cancer Research and Treatment, 2022)
